A value given as a limit tells only on which side of the number the result lay.

Six compounds from ChEMBL document CHEMBL1129151, “Stereoselective synthesis of lewis-associated trisaccharides as E-selectin inhibitors” (Bioorg Med Chem Lett, 1996) can be followed below.

One assay concerns the target T1, E-selectin (Homo sapiens, UniProt P16581).
T1 sequence (P16581 whole entry): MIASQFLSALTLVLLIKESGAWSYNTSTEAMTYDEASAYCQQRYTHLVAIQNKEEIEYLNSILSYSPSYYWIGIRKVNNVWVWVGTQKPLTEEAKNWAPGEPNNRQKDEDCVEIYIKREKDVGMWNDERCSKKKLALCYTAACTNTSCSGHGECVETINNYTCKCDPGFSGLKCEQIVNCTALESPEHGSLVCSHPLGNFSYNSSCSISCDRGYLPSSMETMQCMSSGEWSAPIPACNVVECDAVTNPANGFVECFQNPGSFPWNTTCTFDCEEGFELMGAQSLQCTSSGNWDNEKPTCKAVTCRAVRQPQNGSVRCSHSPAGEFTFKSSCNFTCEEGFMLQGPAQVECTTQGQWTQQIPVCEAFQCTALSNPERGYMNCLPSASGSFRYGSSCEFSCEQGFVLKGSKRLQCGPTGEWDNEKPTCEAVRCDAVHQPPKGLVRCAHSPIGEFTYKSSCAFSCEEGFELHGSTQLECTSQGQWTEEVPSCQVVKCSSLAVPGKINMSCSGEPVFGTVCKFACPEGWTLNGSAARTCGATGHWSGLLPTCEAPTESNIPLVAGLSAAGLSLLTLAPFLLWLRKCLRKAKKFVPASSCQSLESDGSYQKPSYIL
As to the kind of experiment: In vitro ability to inhibit the adhesion of HL-60 cells to purified recombinant human Selectin E. The assay is classed as cell-based.

A further assay has as its system Mus musculus. As to the kind of experiment: In vivo ability to inhibit lipoteichoic acid (LTA)-induced neutrophil accumulation in murine pleurisy model at a dose of 30 mg/kg upon iv administration. The assay is classed as functional. The note with it: for inhibition in vivo at 30 mg/kg: Mus musculus, iv; for Inhibition: 30 mg/kg.

One may read the IC50 as the concentration that inhibits the measured activity by half. As usually defined, the inhibition in vivo is the drop in the measured response relative to a control, in per cent. A low value points to a weak effect. Take `CCO[C@@H]1O[C@@H](CO)[C@@H](O[C@@H]2O[C@@H](CO)[C@H](O)C(O)[C@@H]2O)C(O[C@@H]2O[C@@H](C)[C@@H](O)[C@H](O)[C@@H]2O)[C@@H]1NC(=O)c1ccc2ccccc2c1` (single isomer, unassigned): the IC50 on E-selectin was above 6.6 mM. At 30 mg/kg the inhibition in vivo in the assay on Mus musculus was 3%.
On to `CCO[C@@H]1O[C@@H](CO)[C@@H](O[C@@H]2O[C@@H](CO)[C@H](O)C(O)[C@@H]2O)C(O[C@@H]2O[C@@H](C)[C@@H](O)[C@H](O)[C@@H]2O)[C@@H]1NC(C)=O` (single isomer, unassigned), for which the IC50 at E-selectin was above 6.6 mM. The same compound came in with an inhibition in vivo at 30 mg/kg with Mus musculus of 31%.
As a reminder, the Inhibition is the percentage by which the read-out fell short of the control. Higher therefore signals a response far below the control. Regarding `CCO[C@@H]1O[C@@H](CO)[C@@H](O[C@@H]2O[C@H](C)[C@H](O)[C@H](O)[C@@H]2O)[C@H](O[C@@H]2O[C@@H](CO)[C@H](O)[C@H](O)[C@@H]2O)[C@@H]1NC(C)=O` (stereo in doubt; 1), at E-selectin, the IC50 was above 6.6 mM. In addition, in the assay on Mus musculus, the Inhibition is listed as 37%.
As to `CCO[C@@H]1O[C@@H](CO)[C@@H](O[C@@H]2O[C@@H](C)[C@H](O)[C@H](O)[C@@H]2O)[C@H](O[C@@H]2O[C@@H](CO)[C@H](O)[C@H](O)[C@@H]2O)[C@@H]1NC(=O)c1ccc2ccccc2c1` (stereo in doubt; 2), on E-selectin, the IC50 was above 6.6 mM. The same compound came in with an inhibition in vivo at 30 mg/kg in the assay on Mus musculus of 49%.
In the case of `CCO[C@@H]1O[C@@H](CO)[C@@H](O[C@@H]2O[C@H](C)[C@H](O)[C@H](O)[C@@H]2O)[C@H](O[C@@H]2O[C@@H](CO)[C@H](O)[C@H](O)[C@@H]2O)[C@@H]1NC(C)=O` (stereo in doubt; 3), the IC50 on E-selectin stood at 1.4 mM. Also, in the assay on Mus musculus, 30 mg/kg produced 51% inhibition in vivo.
Consider `CCO[C@@H]1O[C@@H](CO)[C@@H](O[C@@H]2O[C@@H](C)[C@H](O)[C@H](O)[C@@H]2O)[C@H](O[C@@H]2O[C@@H](CO)[C@H](O)[C@H](O)[C@@H]2O)[C@@H]1NC(=O)c1ccc2ccccc2c1` (stereo in doubt; 4), for which the IC50 at E-selectin came to 2 mM. In the assay on Mus musculus, the Inhibition amounted to 62%.
